From PMC10666548, “Identification of the bacterial metabolite aerugine as potential trigger of human dopaminergic neurodegeneration” (Environment international, 2023)
“Also recorded” adds a separate entry of the source.

Tests used:
[1] = test system: aerugine (10 μM) cytotoxicity in LUHMES cultures (d6); assay: Modulation of aerugine-induced neurodegeneration by mechanistic inhibitors; assay type: cell-based, human; conditions: 24 h; for prevention of aerugine-induced cell death (viability) / maximal prevention of aerugine neurotoxicity: inhibitor 15 min prior to 10 μM aerugine
Description: (§1) For toxicity assessment of mature LUHMES neurons, precursor cells were pre-differentiated for 2 days in cell culture flasks pre-coated as described above and differentiation medium. Then, 45′000 cells per well were seeded in differentiation medium into standard 96-well plates pre-coated as described above. They were incubated at 37 °C and 5% CO2 for 4 days before compound treatment. At this time, cells were >99% post-mitotic and had established an extensive neurite network ([Scholz et al., 2011]) The cell viability was assessed via the Calcein/Hoechst readout, the LDH assay and the resazurin reduction assay.
(§2) Neurite area (NA) and viability (V) were assessed as described previously ([Stiegler et al., 2011]). In brief, cells were stained with 1 μM calcein-AM and 1 μg/ml H-33342 for 30 min at 37 °C and 5% CO2. Image acquisition was performed using an Array-Scan VTI HCS Reader (Cellomics, PA, USA) equipped with a Hamamatsu ORCA-ER camera. 10 fields per well were imaged with 2 channels at 20x magnification (2×2 pixel binning). Excitation/emission wavelengths of 365 ± 50/535 ± 45 nm were used for Hoechst detection in channel 1 and 474 ± 40/535 ± 45 nm were used for calcein detection in channel 2.
Fig. 4. Modulation of aerugine-induced neurodegeneration by mechanistic inhibitors. LUHMES cultures (d6) were used under standard conditions to assess the cytotoxicity of aerugine (10 μM) in the presence of various agents known to interfere with cell death pathways. A Treatment scheme: the respective inhibitors were applied 15 min prior to aerugine treatment (10 μM), and the viability was determined by high-content imaging after 24 h. B Inhibitors were used at different concentrations, as indicated. The main biochemical activity of each agent is indicated in brackets. Data are means ± SEM of at least three biological replicates with 3 technical replicates each. DFP = deferiprone; DFO = deferoxamine; qVD = caspase inhibitor; RIPK = receptor-interacting serine/threonine-protein kinase. For statistical analysis, the lowest concentration of inhibitor that produced the maximal protective effect (red) was compared to the treatment with aerugine alone using a two-tailed t-test (*: p = 0.01). C Exemplary pictures of LUHMES cultures after 24 h treatment: negative control (=DMSO), positive control (=10 μM aerugine), DFP (=20 μM DFP + 10 μM aerugine) and qVD (=5 μM qVD + 10 μM aerugine). Arrows indicate cells with a broken cell membrane (calcein-negative) and condensed nuclei (small H-33342-positive area). Arrow heads indicate disintegrating neurites (chains of calcein-positive blebs).

[2] = test system: human dopaminergic neurons (LUHMES cells); assay: Cytotoxicity to mature (d6) LUHMES neurons, calcein-AM & H-33342 high content imaging; assay type: cell-based; conditions: d6 LUHMES; for cytotoxicity to DAergic neurons (viability): 24 h (24 h and 48 h for purified compounds)
Description: as §1, §2
Nuclei were identified in channel 1 depending on intensity, area, size and shape. Their outlines were expanded by 3.2 μm to define a virtual cell soma area (VCSA), which was bigger than the average cell soma to prevent false positive NAs. All calcein-positive pixels were defined as viable cellular structures (VCSs). The NA was automatically calculated by excluding the VCSAs from the VCSs. Furthermore all nuclei co-localizing with VCSs were defined as alive.

SMILES	prevention of aerugine-induced cell death (viability) [1]	cytotoxicity to DAergic neurons (viability) [2]	maximal prevention of aerugine neurotoxicity [1]	other results
N[C@@H](Cc1ccc(O)c(I)c1)C(=O)O [3-iodo-tyrosine]	had no effect at all			
O=C(O)C1CSC(c2ccccc2O)=N1 (stereo not shown) [DHAA, Dihydroaeruginoic acid, reference compound]		all toxicity was lost		
O=Cc1csc(-c2ccccc2O)n1 [IQS, aeruginealdehyde]		about equipotent with aeruginol		concentration range killing DAergic neurons ([2]; within 24 h): 10 to 25 µM
OCc1csc(-c2ccccc2O)n1 [aeruginol]		cytotoxic to DAergic neurons in a time- and concentration-dependent manner		
N[C@@H](CS)C(=O)O [cysteine]			60–90%	
O=CC1CSC(c2ccccc2O)=N1 (stereo not shown) [dhIQS, dihydro-aeruginealdehyde]		all toxicity was lost		
O=c1c2ccccc2[se]n1-c1ccccc1 [ebselen]			60–90%	
CCOC(=O)c1ccc(NC2CCCCC2)c(N)c1 [ferrostatin]			60–90%	
CN1C(=O)C(Cc2c[nH]c3ccccc23)NC1=S (stereo not shown) [necrostatin-1]	only slightly attenuated cell death			
CC(C)[C@H](NC(=O)c1ccc2ccccc2n1)C(=O)N[C@@H](CC(=O)O)C(=O)COc1c(F)cccc1F [qVD]	completely prevented; also recorded: prevented cell death			neurite structure in presence of inhibitor ([1]; 10 μM aerugine): damage to the neurites still occurred and lost; optimal concentrations for prevention of cell death ([1]; 10 μM aerugine): 2 to 4 µM
